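Tested at 5 concentrations; 48 h exposure; 96-well plates; endpoints linearly interpolated, else capped at highest concentration. TGI: total growth inhibition.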
system: SK-MEL-2 melanoma; experiment: NCI-60 cell line screen, 48 h

Q: `CCOC(=O)C1CN(C2CC2)CCC1=O` (configuration not stated) was tested. Which TGI did it give?
A: > 100 µM

Q: How did the TGI turn out when `Cc1cc2nc(-c3cc(C(C)(C)C)c(O)c(C(C)(C)C)c3)[nH]c2cc1C` was run?
A: > 100 µM

Q: With `CCOC(=O)C(C)c1nc2c(Cl)c3ncccc3cc2[nH]c1=O` (configuration not stated) as the molecule, how does the TGI read?
A: > 100 µM

Q: How did the TGI turn out when `CC(C)C1=C2CCC3(C)C(CCC4C5C6OCC5(CCC6(C)C)CCC43C)C2(C)CC1` (configuration not stated) was run?
A: 81.7 µM

Q: With `COC(=O)C1=C(O)C(C(=O)OC)[C@@]2(O)[C@@H](C(=O)OC)[C@H](C)[C@@H](C)[C@@H]1[C@@H]2C(=O)OC` (some centres not stated) as the molecule, how does the TGI read?
A: > 100 µM

system: A549 NSCLC; experiment: NCI-60 cell line screen, 48 h

Q: How did the TGI turn out when `CCOC(=O)C1CN(C2CC2)CCC1=O` (configuration not stated) was run?
A: > 100 µM

Q: `Cc1cc2nc(-c3cc(C(C)(C)C)c(O)c(C(C)(C)C)c3)[nH]c2cc1C` was tested. Which TGI did it give?
A: 26.3 µM

Q: With `CCOC(=O)C(C)c1nc2c(Cl)c3ncccc3cc2[nH]c1=O` (configuration not stated) as the molecule, how does the TGI read?
A: > 100 µM

Q: Which TGI does the source give for `CC(C)C1=C2CCC3(C)C(CCC4C5C6OCC5(CCC6(C)C)CCC43C)C2(C)CC1` (configuration not stated) here?
A: 43.8 µM

Q: For `c1ccc(-c2cnc(-c3ccc(-c4ncc(-c5ccccc5)o4)cc3)o2)cc1`, which TGI is on record?
A: > 100 µM

Q: `O=C(OCC(OC(=O)c1ccccc1)C(OC(=O)c1ccccc1)C(OC(=O)c1ccccc1)c1cnn(-c2ccccc2)n1)c1ccccc1` (configuration not stated) was tested. Which TGI did it give?
A: > 100 µM

system: SF-295 CNS; experiment: NCI-60 cell line screen, 48 h

Q: Which TGI does the source give for `CCOC(=O)C1CN(C2CC2)CCC1=O` (configuration not stated) here?
A: > 100 µM

Q: With `Cc1cc2nc(-c3cc(C(C)(C)C)c(O)c(C(C)(C)C)c3)[nH]c2cc1C` as the molecule, how does the TGI read?
A: > 100 µM

Q: How did the TGI turn out when `CCOC(=O)C(C)c1nc2c(Cl)c3ncccc3cc2[nH]c1=O` (configuration not stated) was run?
A: > 100 µM

Q: Which TGI does the source give for `CC(C)C1=C2CCC3(C)C(CCC4C5C6OCC5(CCC6(C)C)CCC43C)C2(C)CC1` (configuration not stated) here?
A: 34.5 µM

Q: For `c1ccc(-c2cnc(-c3ccc(-c4ncc(-c5ccccc5)o4)cc3)o2)cc1`, which TGI is on record?
A: > 100 µM

Q: With `O=C(OCC(OC(=O)c1ccccc1)C(OC(=O)c1ccccc1)C(OC(=O)c1ccccc1)c1cnn(-c2ccccc2)n1)c1ccccc1` (configuration not stated) as the molecule, how does the TGI read?
A: > 100 µM

system: NCI-H23 lung; experiment: NCI-60 cell line screen, 48 h

Q: `CCOC(=O)C1CN(C2CC2)CCC1=O` (configuration not stated) was tested. Which TGI did it give?
A: > 100 µM

Q: For `Cc1cc2nc(-c3cc(C(C)(C)C)c(O)c(C(C)(C)C)c3)[nH]c2cc1C`, which TGI is on record?
A: > 100 µM

Q: How did the TGI turn out when `CCOC(=O)C(C)c1nc2c(Cl)c3ncccc3cc2[nH]c1=O` (configuration not stated) was run?
A: > 100 µM

Q: For `CC(C)C1=C2CCC3(C)C(CCC4C5C6OCC5(CCC6(C)C)CCC43C)C2(C)CC1` (configuration not stated), which TGI is on record?
A: 54.5 µM

Q: With `c1ccc(-c2cnc(-c3ccc(-c4ncc(-c5ccccc5)o4)cc3)o2)cc1` as the molecule, how does the TGI read?
A: > 100 µM

Q: For `O=C(OCC(OC(=O)c1ccccc1)C(OC(=O)c1ccccc1)C(OC(=O)c1ccccc1)c1cnn(-c2ccccc2)n1)c1ccccc1` (configuration not stated), which TGI is on record?
A: > 100 µM

Q: How did the TGI turn out when `COC(=O)C1=C(O)C(C(=O)OC)[C@@]2(O)[C@@H](C(=O)OC)[C@H](C)[C@@H](C)[C@@H]1[C@@H]2C(=O)OC` (some centres not stated) was run?
A: > 100 µM

system: MOLT-4 leukemia; experiment: NCI-60 cell line screen, 48 h

Q: For `CCOC(=O)C1CN(C2CC2)CCC1=O` (configuration not stated), which TGI is on record?
A: > 100 µM

Q: Which TGI does the source give for `Cc1cc2nc(-c3cc(C(C)(C)C)c(O)c(C(C)(C)C)c3)[nH]c2cc1C` here?
A: 27.1 µM

Q: Which TGI does the source give for `CCOC(=O)C(C)c1nc2c(Cl)c3ncccc3cc2[nH]c1=O` (configuration not stated) here?
A: > 100 µM

Q: For `CC(C)C1=C2CCC3(C)C(CCC4C5C6OCC5(CCC6(C)C)CCC43C)C2(C)CC1` (configuration not stated), which TGI is on record?
A: 34.6 µM

Q: Which TGI does the source give for `c1ccc(-c2cnc(-c3ccc(-c4ncc(-c5ccccc5)o4)cc3)o2)cc1` here?
A: > 100 µM

Q: `O=C(OCC(OC(=O)c1ccccc1)C(OC(=O)c1ccccc1)C(OC(=O)c1ccccc1)c1cnn(-c2ccccc2)n1)c1ccccc1` (configuration not stated) was tested. Which TGI did it give?
A: > 100 µM

Q: `COC(=O)C1=C(O)C(C(=O)OC)[C@@]2(O)[C@@H](C(=O)OC)[C@H](C)[C@@H](C)[C@@H]1[C@@H]2C(=O)OC` (some centres not stated) was tested. Which TGI did it give?
A: > 100 µM

system: SR leukemia; experiment: NCI-60 cell line screen, 48 h

Q: `CCOC(=O)C1CN(C2CC2)CCC1=O` (configuration not stated) was tested. Which TGI did it give?
A: > 100 µM

Q: With `Cc1cc2nc(-c3cc(C(C)(C)C)c(O)c(C(C)(C)C)c3)[nH]c2cc1C` as the molecule, how does the TGI read?
A: > 31.7 µM

Q: `CCOC(=O)C(C)c1nc2c(Cl)c3ncccc3cc2[nH]c1=O` (configuration not stated) was tested. Which TGI did it give?
A: 99.2 µM

Q: With `CC(C)C1=C2CCC3(C)C(CCC4C5C6OCC5(CCC6(C)C)CCC43C)C2(C)CC1` (configuration not stated) as the molecule, how does the TGI read?
A: 30.6 µM

Q: With `O=C(OCC(OC(=O)c1ccccc1)C(OC(=O)c1ccccc1)C(OC(=O)c1ccccc1)c1cnn(-c2ccccc2)n1)c1ccccc1` (configuration not stated) as the molecule, how does the TGI read?
A: > 100 µM

Q: How did the TGI turn out when `COC(=O)C1=C(O)C(C(=O)OC)[C@@]2(O)[C@@H](C(=O)OC)[C@H](C)[C@@H](C)[C@@H]1[C@@H]2C(=O)OC` (some centres not stated) was run?
A: > 100 µM

system: HS 578T breast; experiment: NCI-60 cell line screen, 48 h

Q: For `CCOC(=O)C1CN(C2CC2)CCC1=O` (configuration not stated), which TGI is on record?
A: > 100 µM

Q: How did the TGI turn out when `Cc1cc2nc(-c3cc(C(C)(C)C)c(O)c(C(C)(C)C)c3)[nH]c2cc1C` was run?
A: > 100 µM

Q: For `CCOC(=O)C(C)c1nc2c(Cl)c3ncccc3cc2[nH]c1=O` (configuration not stated), which TGI is on record?
A: 90.4 µM

Q: How did the TGI turn out when `CC(C)C1=C2CCC3(C)C(CCC4C5C6OCC5(CCC6(C)C)CCC43C)C2(C)CC1` (configuration not stated) was run?
A: 51.3 µM

Q: Which TGI does the source give for `c1ccc(-c2cnc(-c3ccc(-c4ncc(-c5ccccc5)o4)cc3)o2)cc1` here?
A: > 100 µM

Q: `O=C(OCC(OC(=O)c1ccccc1)C(OC(=O)c1ccccc1)C(OC(=O)c1ccccc1)c1cnn(-c2ccccc2)n1)c1ccccc1` (configuration not stated) was tested. Which TGI did it give?
A: > 100 µM

Q: How did the TGI turn out when `COC(=O)C1=C(O)C(C(=O)OC)[C@@]2(O)[C@@H](C(=O)OC)[C@H](C)[C@@H](C)[C@@H]1[C@@H]2C(=O)OC` (some centres not stated) was run?
A: > 100 µM

system: KM12 colon; experiment: NCI-60 cell line screen, 48 h

Q: With `CCOC(=O)C1CN(C2CC2)CCC1=O` (configuration not stated) as the molecule, how does the TGI read?
A: > 100 µM

Q: Which TGI does the source give for `Cc1cc2nc(-c3cc(C(C)(C)C)c(O)c(C(C)(C)C)c3)[nH]c2cc1C` here?
A: > 28.8 µM

Q: How did the TGI turn out when `CCOC(=O)C(C)c1nc2c(Cl)c3ncccc3cc2[nH]c1=O` (configuration not stated) was run?
A: > 100 µM

Source: PubChem BioAssay (NCI)
